Here are results for three molecules from patent publication US20230107216A1, “PANTETHEINE DERIVATIVES AND USES THEREOF” (Comet Therapeutics, Inc., priority 2018, published 2023).

Where two headings read alike, the source gives them in different places.

Data set [1] concerns Propionic Acidemia (PA) primary fibroblasts GM00371. Kind of data set: Mitochondrial respiration, XFe96 Extracellular Flux Analyzer (OCR/ECAR), PA fibroblasts GM00371. The following applies: Homo sapiens, Fibroblast, read-out: Increase in Maximal Respiratory Capacity AUC; for activation at 50 µM: assay condition C (10 mM glucose, 10% FBS). The format is cell-based.
The test system of the next data set is HepG2 cells. Description: Glucose uptake (Glucose Uptake-Glo). The format is cell-based. The following applies: Homo sapiens, 10 uM, read-out: % increase in Glucose Uptake.
Data set [2] deals with Venular Endothelial cells (HUVEC) (3C system). Description: BioMAP 3C system (IL-1β, TNFα, IFNγ). It is filed as cell-based, human. The following applies: 10 uM; procedure of Example 825. The protocol:
The BioMAP platform (BioMAP® Diversity PLUS® Panel from Eurofins) is an in vitro phenotypic profiling technology that screened the compounds of the present disclosure (hereafter indicated as test agents) in human primary cell-based systems modelling complex tissue and disease states. The BioMAP assays were performed using the Eurofin's BioMAP Technology Platform as (see references 1 to 13 in the example 824 section) to model different diseases on primary cell-based model systems. These systems consisted of either single primary cell types or co-culture cells. Adherent cell types were cultured or co-cultured in 96 or 384-well plates until confluence followed by the addition of compounds prepared in DMSO at a final concentration of ≤0.1%. In each cell-based system, primary cells from heathy donors (2-6 donors) were pooled and treated with compounds at 1 and 10 μM dose 1h prior to stimulation and remain in culture as indicated in Example 825, Example 826, Example 827, Example 828, Example 829, Example 830, Example 831, Example 832, Example 833, Example 834, Example 835, Example 836 and Example 837. For on the BioMAP® Diversity PLUS® Panel, please see the following references, which are incorporate herein.
Following the general procedure as described in Example 824, Venular Endothelial cells (HUVEC) (3C system) were treated with IL-1β, TNFα, IFNγ for 24h to model Th1 driven cardiovascular and chronic inflammation diseases in the presence or absence of the compounds. Biomarker read out were; Tissue Factor, ICAM-1, E-selectin, uPAR (CD87), IL-8, MIG, HLA-DR, proliferation and SRB (Sulfo-rhodamine i.e. staining for protein content).

In data set [3] the test system is Venular Endothelial cells (HUVEC) (4H system). Kind of data set: BioMAP 4H system (IL-4 and histamine). The format is cell-based, human. The following applies: procedure of Example 826; for inhibition at 1 µM: Homo sapiens, HUVEC, 24 h, read-out: % decrease in VEGFRII.
The test system of data set [4] is Peripheral blood mononuclear cells co-cultured with venular endothelial cells (HUVEC) (LPS system). Description: BioMAP LPS system. It is filed as cell-based, human. The following applies: procedure of Example 827; for inhibition at 1 µM / activation at 10 µM / inhibition at 10 µM: Homo sapiens, HUVEC, 24 h; for activation at 10 µM: read-out: % increase in sTNFα.
The subject of data set [5] is Bronchial epithelial cells co-cultured with dermal fibroblast (BF4T system). Kind of data set: BioMAP BF4T system (TNFα and IL-4). It is filed as cell-based, human. The following applies: procedure of Example 830.
Data set [6] deals with Bronchial epithelial cells (BE3C system). Description: BioMAP BE3C system (IL-1β, TNFα, IFNγ). The following applies: 10 uM, procedure of Example 831; for inhibition at 10 µM: Homo sapiens, Epithelial cell, 24 h, read-out: % decrease in MMP-1. The format is cell-based, human.
Data set [7] has as its system Coronary artery smooth muscle cells (CASM3C system). Kind of data set: BioMAP CASM3C system (IL-1β, TNFα, IFNγ). The following applies: for inhibition at 10 µM: Homo sapiens, 24 h, read-out: % decrease in Thrombomodulin. It is filed as cell-based, human.
For data set [8], the system named is Dermal fibroblasts (HDF3CGF system). Description: BioMAP HDF3CGF system (IL-1β, TNFα, IFNγ, EGF, bFGF, PDGF-BB). It is filed as cell-based, human.
Data set [9] deals with Peripheral blood mononuclear cells co-cultured with B-cells (BT system). Kind of data set: cells. The following applies: Homo sapiens, 72 h.
In data set [10] the test system is primary culture of rat embryo mesencephalic cells (microglia, astrocytes and neurons) exposed to LPS. Description: Neuroprotective effect on damage induced by LPS on culture of mesencephalic neurons (NO, TNF-α, IL-1β, TH positive neurons). The format is cell-based. The following applies: 50 uM, after 5 days of LPS exposure; for inhibition at 50 µM: Rattus norvegicus, Neuron, 120 h, read-out: % reversion of TH positive neurons. On the procedure: Drug preparation. […] The stock solutions will be prepared 1000× the concentration in 100% DMSO. The final concentration of the vehicle (DMSO) is set at 0.1%.
Test animals. Pregnant Wistar rats (Janvier; France) are used for the study. They are group-housed and maintained in a room with controlled temperature (21-22° C.) and a reversed light-dark cycle (12h/12h; lights on: 17:30-05:30; lights off: 05:30-17:30) with food and water available ad libitum.
The protocol is performed in 3 independent cultures. For each culture, each condition is performed in sextuplicate.
Female rat of 15 days gestation is killed by cervical dislocation. Fetuses are removed from the uterus and their brains are harvested and placed in ice-cold medium (Leibovitz's L15 medium, Gibco). Only ventral mesencephalic flexure is used for the cell preparations. The midbrain is dissociated by trypsinization. The reaction is stopped, and the suspension is triturated and centrifuged. The pellet of dissociated cells is resuspended in culture medium consisted of DMEM-F12 (Gibco), containing 10% FBS (ATCC), 10% Horse serum (Gibco) and 2 mM L-glutamine (Gibco). Viable cells are counted and seeded on 96-well plates, precoated with poly-L-lysine. Cells are maintained in a humidified incubator at 37° C. in 5% CO2-95% air atmosphere. Half of the medium is changed on day 2 and day 5.
Treatment. On day 7, culture media are removed and replaced by new medium consisting of DMEM-F12 (Gibco) supplemented with 2% FBS (ATCC), 2% Horse serum (Gibco) and 2 mM L-glutamine (Gibco) and containing vehicle or test substances. After 1-hour exposure, LPS at 10 ng/ml is added and exposure further continued for 24 hours or 5 days period.
Inflammatory response measurement and neuronal death evaluation. NO production is measured in the media 24h and 5 days after LPS exposure using the Griess reagent kit (Molecular Probes). The Griess reagent Assay is a colorimetric reaction assay which measures the conversion of a sulfanilic salt into an azo dye product by nitrite. Visible wavelength absorbance data is collected using a 96-well plate reader at 570 nm (Multiskan EX, Thermo Fisher, France). IL-1β and TNF-α release are measured in the media 24h after LPS exposure using the ELISA development kit (PeproTech). The ELISA plate, previously coated with anti-IL-1β or anti-TNF-αantibody at 1 μg/ml, is incubated 1h with PBS containing 1% of BSA (bovine serum albumin). After washing four times with PBS containing 0.05% of Tween-20, the plate is successively incubated 2h with supernatant, 2h with biotinylated antibody at 0.5 μg/ml in PBS containing 0.1% of BSA and 0.05% of Tween-20, 45 min with Avidin-HRP conjugated at 1/2000 and 30 min with color ABTS substrate (Sigma). Visible wavelength absorbance data is collected using a 96-well plate reader at 405 nm with wavelength correction set at 650 nm (Multiskan EX, Thermo Fisher, France).
Immunodetection of tyrosine hydroxylase positive neurons. On day 12 (5 days after LPS exposure), cultures are fixed 30 min at 4° C. with paraformaldehyde in PBS (4%, Sigma). Then, cells are successively permeabilized with 0.1% Triton X100 for 30 min, saturated with PBS containing 3% of BSA (bovine serum albumin) and are incubated 2h with anti-tyrosine hydroxylase antibody (Sigma, 1:10000; clone TH-2) at 1/10 000 in PBS containing 0.5% of BSA. Cells are washed three times with PBS containing 0.5% of BSA, and they are incubated 1h with goat anti mouse antibody coupled with AF488 (Invitrogen A11001) diluted at 1/1000 in PBS containing 0.5% of BSA. Finally, nuclei are stained with DAPI at 1/1000 in PBS containing 0.5% of BSA. After rinsing with PBS, the plate is visualized and examined with Cell Insight HCS (Thermo Scientific) to determine the number of tyrosine hydroxylase positive cells per well.
Statistical Analysis. The drug-induced effect on NO and cytokines is calculated by setting the response of the LPS-stimulated control as 100%. […]

Data set [11] concerns Peripheral blood mononuclear cells co-cultured with B-cells (BT system).
The mark [12] stands for this setting: 10 uM, procedure of Example 833.
Setting [13] is: 10 uM, procedure of Example 829.

In the case of `COC(=O)CCC(=O)SCCNC(=O)CCNC(=O)[C@H](O)C(C)(C)COC(=O)OCC[N+](C)(C)C` [Compound 117, [2-([[(3R)-3-hydroxy-3-[[2-([2-[(4-methoxy-4-oxobutanoyl)sulfanyl]ethyl]carbamoyl)ethyl]carbamoyl]-2,2-dimethylpropoxy]carbonyl]oxy)ethyl]trimethylazanium], the activation at 50 µM in data set [1] is at least 10%. Also, the activation at 10 µM is at least 30% in the data set on HepG2 cells; at least 20% in data set [4]; at least 10% in [8] (Homo sapiens, Fibroblast, 72 h, 10 uM, read-out: % increase in 72 Hour Proliferation); at least 10% in data set [9] (read-out: % increase in sIL-6). Further, the “% increase in Proliferation (HUVEC)” value in data set [2] is given as at least 10%. The inhibition at 1 µM in data set [3] was at least 10%; in data set [4] (1 uM, read-out: % decrease in sPGE2), at least 10%; in [9] (read-out: % decrease in sIL-17), at least 20%. Moreover, the “% increase in IL-1α” value in data set [4] (1 uM) is on record as at least 10%. Further, the “% increase in Tissue Factor” value in data set [4] (1 uM) is at least 10%. Besides, the “% decrease in tPA” value in [5] (10 uM) and in data set [6] was at least 10% each time. Also, the inhibition at 10 µM in data set [6] and in data set [7] (10 uM) was at least 10% each time. For the same molecule, the “% decrease in CXCL9” value in data set [7] (10 uM) was at least 10%.
Regarding `COC(=O)/C=C/C(=O)SCCNC(=O)CCNC(=O)[C@H](O)C(C)(C)COC(C)=O` [Compound 145, methyl (2E)-4-[(2-[3-[(2R)-4-(acetyloxy)-2-hydroxy-3,3-dimethylbutanamido]propanamido]ethyl)sulfanyl]-4-oxobut-2-enoate], the figures for the activation at 10 µM (in the data set with HepG2 cells; in data set [4]) were at least 30% and at least 10%, respectively. Besides, the “% decrease in IL-8” value in data set [2] is given as at least 10%. Moreover, the inhibition at 10 µM in data set [4] (read-out: % decrease in IL-1α) was at least 10%; in data set [4] (read-out: % decrease in IL-8), at least 10%; in data set [8] (Homo sapiens, Fibroblast, 24 h, 10 uM, read-out: % decrease in Collagen III), at least 10%. Further, the “% increase in tPA” value in data set [5] (10 uM) is at least 10%. Besides, in data set [5] (Homo sapiens, 24 h, 1 uM, read-out: % increase in VCAM-1), the activation at 1 µM was at least 10%. For the same molecule, in [7] (1 uM, procedure of Example 832), the “% decrease in LDLR” value is listed as at least 10%. For the same molecule, in [7] (10 uM), the “% decrease in HLA-DR” value is recorded as at least 10%. In addition, in data set [8] (setting [12]), the “% decrease in Collagen I” value is given as at least 10%. Also, the “% decrease in NO release relative to LPS alone” value in [10] is at least 35%. Further, the inhibition at 50 µM in [10] (list at threshold 15%) is at least 15%; in data set [10] (list at threshold 50%) it was at least 50%. In [11] (1 uM, procedure of Example 829), the “% decrease in B-cell proliferation” value is at least 20%. Moreover, in data set [11] (setting [13]), the “% decrease in sTNFα” value is recorded as at least 10%. The “% decrease in PBMC cytotoxicity” value in data set [11] (human, 72 h, 10 µM) is listed as at least 20%. Also, the inhibition at 1 µM in [9] (read-out: % decrease in sIL-17) is at least 10%.
For `CC(=O)OCCCC(=O)SCCNC(=O)CCNC(=O)[C@H](O)C(C)(C)CO` [Compound 1305, 4-[(2-[3-[(2R)-2,4-dihydroxy-3,3-dimethylbutanamido]propanamido]ethyl)sulfanyl]-4-oxobutyl acetate], the activation at 50 µM in data set [1] was at least 10%. For the same molecule, the activation at 10 µM in data set [1] (assay condition D (1 mM glucose, 10% FBS), 10 μM) is at least 10%; in the data set on HepG2 cells it was at least 10%; in [4] it was at least 20%. For the same molecule, in data set [2], the “% increase in Proliferation (HUVEC)” value is at least 20%. The “% decrease in MCP-1” value in data set [3] (10 uM) is on record as at least 10%. The inhibition at 1 µM in data set [3] is at least 10%; in data set [4] (1 uM, read-out: % decrease in IL-8), at least 10%; in data set [4] (1 uM, read-out: % decrease in TissueFactor) it was at least 10%; in data set [8] (Homo sapiens, Fibroblast, 24 h, 1 uM, read-out: % decrease in Collagen III) it was at least 10%. Moreover, the inhibition at 10 µM in data set [6] was at least 10%; in [7] (10 uM) it was at least 20%; in [9] (read-out: % decrease in sIL-17), at least 20%. Also, in [7] (1 uM, procedure of Example 832), the “% decrease in M-CSF” value was at least 10%. The “% decrease in Proliferation” value in data set [7] (1 uM, procedure of Example 832) is on record as at least 10%. For the same molecule, the “% decrease in VCAM-1” value in data set [7] (1 uM, procedure of Example 832) is at least 10%. Further, the “% decrease in CXCL9” value in [7] (10 uM) is reported as at least 10%. Moreover, in data set [7] (10 uM), the “% decrease in Tissue Factor” value is listed as at least 10%. In addition, the “% decrease in CXCL11/I-TAC” value in data set [8] (setting [12]) is given as at least 10%. Besides, in data set [11] (setting [13]), the “% increase in B-cell Proliferation” value is given as at least 10%.
